Values after ≈ are worked out from the molar mass of the structure shown.
Key:
Assay in all cases: ≥ marks a high value that may be exact or a test limit, other limits are often not marked, values filed in µg/mL are converted to µM
[1] = test system: Bacillus subtilis ATCC 6051
[2] = test system: Candida albicans ATCC 90028
Candida albicans SC5314 = test system: Candida albicans SC5314
Candida krusei ATCC 6258 = test system: Candida krusei ATCC 6258
[3] = test system: Candida parapsilosis ATCC 22019
Escherichia coli K-12 = test system: Escherichia coli K-12
[4] = test system: Pseudomonas aeruginosa PAO1
[5] = test system: Staphylococcus aureus ATCC 6538P
Bacillus subtilis = test system: Bacillus subtilis
[6] = test system: Enterococcus faecalis ATCC 29212
Escherichia coli = test system: Escherichia coli
[7] = test system: Klebsiella pneumoniae ATCC 13883
[8] = test system: Pseudomonas aeruginosa ATCC 27853
[9] = test system: Salmonella enterica subsp. enterica serovar Typhimurium ATCC 14028
[10] = test system: Staphylococcus aureus ATCC 25923
[11] = test system: Streptococcus pyogenes ATCC 19615
[12] = test system: Staphylococcus aureus USA 300 LAC
[13] = test system: Staphylococcus aureus USA 300
[14] = test system: Escherichia coli ATCC 25922

## CC(C)C[C@H](NC(=O)[C@H](C)N)C(=O)N[C@@H](Cc1c[nH]c2ccccc12)C(=O)N[C@@H](Cc1cnc[nH]1)C(=O)N[C@@H](Cc1cnc[nH]1)C(=O)N[C@@H](CC(C)C)C(=O)N[C@@H](CC(C)C)C(=O)N[C@@H](Cc1cnc[nH]1)C(=O)N[C@@H](Cc1cnc[nH]1)C(=O)N[C@@H](CC(C)C)C(=O)N[C@@H](CC(C)C)C(=O)N[C@@H](Cc1cnc[nH]1)C(=O)N[C@@H](CO)C(=O)N[C@@H](C)C(=O)N[C@@H](Cc1cnc[nH]1)C(=O)N[C@@H](Cc1cnc[nH]1)C(=O)N[C@@H](CC(C)C)C(=O)NCC(N)=O [ALWHHLLHHLLHSAHHLG]
[1]
  MIC: 1.88 µM (≈ 3.99 µg/mL)

## CC[C@H](C)[C@H](NC(=O)CN)C(=O)N[C@@H](Cc1c[nH]c2ccccc12)C(=O)N[C@@H](CCCCN)C(=O)N[C@@H](CCCCN)C(=O)N[C@@H](Cc1c[nH]c2ccccc12)C(=O)N[C@H](C(=O)N[C@@H](CCCCN)C(=O)N[C@@H](CCCCN)C(=O)N[C@H](C(=O)N[C@H](C(=O)N[C@@H](CC(N)=O)C(=O)N[C@H](C(=O)N[C@@H](CC(C)C)C(=O)N[C@@H](CCCCN)C(=O)N[C@@H](CC(N)=O)C(=O)N[C@@H](CC(C)C)C(=O)N[C@@H](Cc1ccccc1)C(N)=O)C(C)C)C(C)C)C(C)C)[C@@H](C)CC [GIWKKWIKKVVNVLKNLF]
[2]
  MIC: 14.5 µM (≈ 32 µg/mL)
Candida albicans SC5314
  MIC: 7.23 µM (≈ 16 µg/mL)
Candida krusei ATCC 6258
  MIC: 14.5 µM (≈ 32 µg/mL)
[3]
  MIC: 7.23 µM (≈ 16 µg/mL)

## CC[C@H](C)[C@H](NC(=O)CN)C(=O)N[C@@H](Cc1c[nH]c2ccccc12)C(=O)N[C@@H](CCCCN)C(=O)N[C@@H](CCCCN)C(=O)N[C@@H](Cc1c[nH]c2ccccc12)C(=O)N[C@H](C(=O)N[C@@H](CCCCN)C(=O)N[C@@H](CCCCN)C(=O)N[C@@H](Cc1c[nH]c2ccccc12)C(=O)N[C@@H](CC(C)C)C(=O)N[C@@H](CCCCN)C(=O)N[C@@H](CCCCN)C(=O)N[C@@H](CC(C)C)C(=O)N[C@@H](CC(C)C)C(=O)N[C@@H](CCCCN)C(=O)N[C@@H](CCCCN)C(=O)N[C@@H](CC(C)C)C(=O)N[C@@H](Cc1c[nH]c2ccccc12)C(=O)N[C@@H](CCCCN)C(=O)N[C@@H](CCCCN)C(=O)NCC(=O)O)[C@@H](C)CC [GIWKKWIKKWLKKLLKKLWKKG]
[2]
  MIC: 22.6 µM (≈ 64 µg/mL)
Candida albicans SC5314
  MIC: 11.3 µM (≈ 32 µg/mL)
Candida krusei ATCC 6258
  MIC: 22.6 µM (≈ 64 µg/mL)
[3]
  MIC: 22.6 µM (≈ 64 µg/mL)

## CC(C)C[C@H](NC(=O)[C@H](CC(C)C)NC(=O)[C@H](CCCCN)NC(=O)[C@H](CC(C)C)NC(=O)[C@H](CC(C)C)NC(=O)[C@H](CCCCN)NC(=O)[C@H](CCCCN)NC(=O)[C@H](CC(C)C)NC(=O)[C@@H](N)CC(C)C)C(N)=O [LLKKLLKLL]
[1]
  MIC: 1.56 µM (≈ 1.69 µg/mL)
Escherichia coli K-12
  MIC: 1.56 µM (≈ 1.69 µg/mL)
[4]
  MIC: 1.56 µM (≈ 1.69 µg/mL)
[5]
  MIC: 1.56 µM (≈ 1.69 µg/mL)

## CC(C)C[C@H](N)C(=O)N[C@@H](Cc1ccc(O)cc1)C(=O)N[C@@H](CCCN=C(N)N)C(=O)N[C@@H](CCCN=C(N)N)C(=O)N[C@@H](CCCN=C(N)N)C(=O)N[C@@H](Cc1ccccc1)C(=O)N[C@H](C(=O)N[C@H](C(=O)NCC(=O)N[C@@H](CCCN=C(N)N)C(N)=O)C(C)C)C(C)C [LYRRRFVVGR]
Bacillus subtilis
  MIC: ≥ 50 µM
[6]
  MIC: 25 µM (≈ 33 µg/mL)
Escherichia coli
  MIC: 50 µM (≈ 66 µg/mL)
[7]
  MIC: ≥ 200 µM
[8]
  MIC: 200 µM (≈ 264 µg/mL)
[9]
  MIC: 200 µM (≈ 264 µg/mL)
[10]
  MIC: 25 µM (≈ 33 µg/mL)
[11]
  MIC: ≥ 50 µM

## CC[C@H](C)[C@H](NC(=O)[C@H](CC(=O)O)NC(=O)[C@H](Cc1c[nH]c2ccccc12)NC(=O)[C@H](CC(C)C)NC(=O)[C@@H](N)CCCN=C(N)N)C(=O)N[C@H](C(=O)N[C@@H](CCCN=C(N)N)C(=O)N[C@@H](CCCN=C(N)N)C(=O)N[C@@H](Cc1c[nH]c2ccccc12)C(=O)N[C@H](C(=O)NCC(=O)N[C@@H](Cc1c[nH]c2ccccc12)C(=O)N[C@@H](CC(C)C)C(N)=O)C(C)C)C(C)C [RLWDIVRRWVGWL]
[4]
  MIC: 9.12 µM (≈ 16 µg/mL)
[10]
  MIC: 2.28 µM (≈ 4 µg/mL)
[12]
  MIC: 4.56 µM (≈ 8 µg/mL)
[13]
  MIC: 1.14 µM (≈ 2 µg/mL)

## CC[C@H](C)[C@H](NC(=O)[C@H](CCCN=C(N)N)NC(=O)[C@H](CCCN=C(N)N)NC(=O)[C@H](CC(C)C)NC(=O)[C@H](Cc1c[nH]c2ccccc12)NC(=O)[C@H](Cc1c[nH]c2ccccc12)NC(=O)[C@@H](N)Cc1c[nH]c2ccccc12)C(=O)N[C@@H](Cc1c[nH]c2ccccc12)C(N)=O [WWWLRRIW]
[14]
  MIC: 6.2 µM (≈ 8.06 µg/mL)
[7]
  MIC: 25 µM (≈ 32.5 µg/mL)
[4]
  MIC: > 50 µM
[12]
  MIC: 3.1 µM (≈ 4.03 µg/mL)
[13]
  MIC: 3.1 µM (≈ 4.03 µg/mL)

## CC[C@H](C)[C@H](NC(=O)[C@H](CCCCN)NC(=O)[C@H](CCCN=C(N)N)NC(=O)[C@H](CC(C)C)NC(=O)[C@H](Cc1c[nH]c2ccccc12)NC(=O)[C@H](Cc1c[nH]c2ccccc12)NC(=O)[C@H](Cc1c[nH]c2ccccc12)NC(=O)[C@@H](N)Cc1c[nH]c2ccccc12)C(N)=O [WWWWLRKI]
[14]
  MIC: 12.5 µM (≈ 15.9 µg/mL)
[7]
  MIC: 8.8 µM (≈ 11.2 µg/mL)
[12]
  MIC: 2.16 µM (≈ 2.74 µg/mL)
